# Laboratory results as given in US12466820B2, “Amino quinazoline derivatives as P2X3 inhibitors” (CHIESI FARMACEUTICI S.p.A., priority 2019, dated 2025).
# How the values were obtained:
# [1] = biological target: T1, h P2X2/3 (Homo sapiens, UniProt P56373+Q9UBL9); test: In vitro electrophysiology assay for P2X2/3 (same protocol, 10 μM ATP as agonist); assay type: cell-based; conditions: Table 7, range of activity
# T1 sequence (P56373 1-397): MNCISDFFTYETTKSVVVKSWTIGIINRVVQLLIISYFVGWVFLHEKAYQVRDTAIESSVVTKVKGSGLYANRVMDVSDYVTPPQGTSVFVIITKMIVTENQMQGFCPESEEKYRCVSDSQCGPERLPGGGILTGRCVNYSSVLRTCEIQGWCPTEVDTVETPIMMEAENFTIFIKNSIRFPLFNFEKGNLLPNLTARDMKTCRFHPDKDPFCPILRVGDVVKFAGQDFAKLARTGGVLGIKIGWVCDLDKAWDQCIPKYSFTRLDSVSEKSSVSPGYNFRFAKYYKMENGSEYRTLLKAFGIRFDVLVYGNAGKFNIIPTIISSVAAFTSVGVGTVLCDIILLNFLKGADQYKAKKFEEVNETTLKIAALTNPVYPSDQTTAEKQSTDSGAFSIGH
# T1 sequence (Q9UBL9 1-471): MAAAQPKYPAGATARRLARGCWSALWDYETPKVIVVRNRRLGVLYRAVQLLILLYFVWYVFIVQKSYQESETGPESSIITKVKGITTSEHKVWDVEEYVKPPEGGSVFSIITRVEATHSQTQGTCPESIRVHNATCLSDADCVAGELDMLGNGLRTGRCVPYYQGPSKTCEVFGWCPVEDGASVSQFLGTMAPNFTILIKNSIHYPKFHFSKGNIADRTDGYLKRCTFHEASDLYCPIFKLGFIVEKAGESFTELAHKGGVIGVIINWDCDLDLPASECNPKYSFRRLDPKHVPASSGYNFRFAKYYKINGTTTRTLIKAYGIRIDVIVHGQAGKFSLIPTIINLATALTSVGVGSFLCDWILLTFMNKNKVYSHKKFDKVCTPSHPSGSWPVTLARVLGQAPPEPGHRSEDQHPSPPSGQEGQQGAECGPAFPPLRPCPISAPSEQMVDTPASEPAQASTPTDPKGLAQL
# Description: Cells expressing P2X3 receptors were grown according to standard practice and maintained at 37° C. in a 5% humidified CO2 atmosphere. The cells were seeded into T175 flask 2 days prior to the day of the assay and dissociated from the flasks using TrypLE when grown to confluence of 80-90%. The dissociated cells were resuspended in serum free media at a cell density of 3×10^6 cells/ml and loaded onto the Sophion Qube automated patch-clamp system. The extracellular assay buffer contained 145 mM NaCl, 4 mM KCl, 2 mM CaCl2), 1 mM MgCl2, 10 mM HEPES, and 10 mM glucose at pH 7.4. The intracellular assay solution contained 140 mM CsF, 10 mM NaCl, 10 mM EGTA, 10 mM HEPES at pH 7.2. Agonist stock solutions were prepared in H2O and diluted in bath solution prior to use. All antagonists were prepared as 10 mM stock solutions in DMSO and diluted in bath solution prior to use. All experiments were performed under the whole-cell patch clamp configuration at room temperature with 384 individual cells being voltage clamped at −60 mV simultaneously on the Sophion Qube instrument. Two baseline responses were established with the application of α,β-MeATP (800 nM), with the subsequent agonist applications being washed out using extracellular assay buffer containing 0.5 U/ml apyrase. Following the second agonist application, antagonist was incubated in the absence of α,β-MeATP for 10 minutes. After antagonist preincubation, 800 nM α,β-MeATP and antagonist were co-administered to determine the inhibitory effect of the antagonist. One concentration of an antagonist was assessed against a single cell, with different concentrations of the antagonist applied to other cells on the 384 recording substrate. The control P2X3 current amplitude was taken from the peak current amplitude from the second agonist response prior to preincubation with antagonist. The peak P2X3 current amplitude in the presence of antagonist was used to calculate the inhibitory effect at each concentration of the antagonist according to the following equation: […]
# Concentration-response curves were constructed from ten different concentrations with each concentration of antagonist tested on at least two individual cells. The concentration of the antagonist to inhibit P2X3 current by 50% (IC50) was determined by fitting the data with the following equation: […]
# Where ‘a’ is minimum response, ‘b’ is maximum response, ‘c’ is IC50 and ‘d’ is Hill slope.
# Representative compound of the present invention have been also tested for P2X2/3 receptor.
# The same assay protocol was used for the P2X2/3 assay as the P2X3 assay with two modifications: 1) 10 μM ATP was used as the agonist; and 2) the mean current amplitude was measured seven seconds after the application of agonist.
# [2] = biological target: T2, h P2X3 (Homo sapiens, UniProt P56373); test: In vitro electrophysiology assay for P2X3 (automated whole-cell patch clamp, Sophion Qube); assay type: cell-based; conditions: range of activity
# T2 sequence (P56373 1-397): T1 sequence (P56373 1-397)
# Outline: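 Whole-cell automated patch clamp at room temperature, cells held at −60 mV; after two 800 nM α,β-MeATP baseline responses, antagonist preincubated 10 min then co-applied with 800 nM α,β-MeATP. Inhibition of peak current vs second agonist response; IC50 from 10-concentration curves, one concentration per cell.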
# [3] = Table 6, inhibition of P2X3 current, agonist α,β-MeATP (800 nM)
Structure (SMILES),IC50 [1] [nM],"IC50 [2, 3] [nM]",IC50 ([2]; Table 7) [nM],h P2X2/3 [1]
"COc1cc(-c2ncc(C)cn2)cc2c(NC(C)c3ccc(C(F)(F)F)nn3)ncnc12 (single isomer, unassigned) [Example 121, 8-methoxy-6-(5-methylpyrimidin-2-yl)-N-[1-[6-(trifluoromethyl)pyridazin-3-yl]ethyl]quinazolin-4-amine]",316 to 3160,316 to 3160,< 316,–
"COc1cc(-c2ncc(C)cn2)cc2c(NCc3nnc(C)s3)ncnc12 [Example 153, 8-methoxy-N-((5-methyl-1,3,4-thiadiazol-2-yl)methyl)-6-(5-methylpyrimidin-2-yl)quinazolin-4-amine]",3160 to 31600,< 316,< 316,–
"COc1cc(-c2ccc(F)cn2)cc2c(NCc3cnc(C(F)(F)F)nc3)ncnc12 [Example 146, 6-(5-fluoropyridin-2-yl)-8-methoxy-N-((2-(trifluoromethyl)pyrimidin-5-yl)methyl)quinazolin-4-amine]",3160 to 31600,< 316,< 316,–
"COc1cc(-c2ccc(F)cc2)cc2c(NC(C)c3cccc(=O)[nH]3)ncnc12 (single isomer, unassigned) [Example 190, 6-(1-((6-(4-Fluorophenyl)-8-methoxyquinazolin-4-yl)amino)ethyl)pyridin-2(1H)-one]",3160 to 31600,316 to 3160,316 to 3160,–
"COc1cc(-c2ccc(F)cn2)cc2c(NC(C)c3nnc(C)s3)ncnc12 (single isomer, unassigned) [Example 174, 6-(5-fluoropyridin-2-yl)-8-methoxy-N-(1-(5-methyl-1,3,4-thiadiazol-2-yl)ethyl)quinazolin-4-amine]",–,< 316,< 316,+ (+: 5.5<pIC50 h P2X3 or h P2X2/3>4.5)
"COc1cc(-c2ncc(C)cn2)cc2c(NCc3cnc(C(F)(F)F)nc3)ncnc12 [Example 145, 8-methoxy-6-(5-methylpyrimidin-2-yl)-N-[[2-(trifluoromethyl)pyrimidin-5-yl]methyl]quinazolin-4-amine]",316 to 3160,< 316,< 316,–
"COc1cc(-c2ncc(C)cn2)cc2c(NCc3nc(C(F)(F)F)no3)ncnc12 [Example 144, 8-methoxy-6-(5-methylpyrimidin-2-yl)-N-[[3-(trifluoromethyl)-1,2,4-oxadiazol-5-yl]methyl]quinazolin-4-amine]",3160 to 31600,< 316,< 316,–
"COc1cc(-c2ncc(F)cn2)cc2c(NC(C)c3nnc(C)s3)ncnc12 (stereo not drawn) [Example 109, 6-(5-fluoropyrimidin-2-yl)-8-methoxy-N-(1-(5-methyl-1,3,4-thiadiazol-2-yl)ethyl)quinazolin-4-amine]",3160 to 31600,316 to 3160,316 to 3160,–
"COc1cc(-c2ccc(F)cc2)cc2c(NC(C)c3cccc(=O)[nH]3)ncnc12 (single isomer, unassigned) [Example 191, 6-(1-((6-(4-Fluorophenyl)-8-methoxyquinazolin-4-yl)amino)ethyl)pyridin-2(1H)-one]",316 to 3160,< 316,< 316,–
"COc1cc(-c2ncc(F)cn2)cc2c(NC(C)c3noc(C)n3)ncnc12 (stereo not drawn) [Example 108, 6-(5-fluoropyrimidin-2-yl)-8-methoxy-N-(1-(5-methyl-1,2,4-oxadiazol-3-yl)ethyl)quinazolin-4-amine]",3160 to 31600,316 to 3160,316 to 3160,–
"COc1cc(-c2ncc(C)s2)cc2c(NCc3ccc(Cl)cn3)ncnc12 [Example 117, N-((5-chloropyridin-2-yl)methyl)-8-methoxy-6-(5-methylthiazol-2-yl)quinazolin-4-amine]",316 to 3160,< 316,< 316,–
"COc1cc(-c2ncc(C)s2)cc2c(NCc3nc(C(F)(F)F)no3)ncnc12 [Example 112, 8-methoxy-6-(5-methylthiazol-2-yl)-N-[[3-(trifluoromethyl)-1,2,4-oxadiazol-5-yl]methyl]quinazolin-4-amine]",316 to 3160,< 316,< 316,–
"COc1cc(-c2ncc(C)cn2)cc2c(NCc3ccc(C)nc3)ncnc12 [Example 154, 8-methoxy-N-((6-methylpyridin-3-yl)methyl)-6-(5-methylpyrimidin-2-yl)quinazolin-4-amine]",316 to 3160,< 316,< 316,–
"COc1cc(-c2ccc(C)cn2)cc2c(NCc3noc(C)n3)ncnc12 [Example 136, 8-methoxy-N-((5-methyl-1,2,4-oxadiazol-3-yl)methyl)-6-(5-methylpyridin-2-yl)quinazolin-4-amine]",3160 to 31600,316 to 3160,316 to 3160,–
"COc1cc(-n2cc(C)cn2)cc2c(N[C@H](C)c3ccc(C)nn3)ncnc12 [Example 99, (R)-8-methoxy-6-(4-methyl-1H-pyrazol-1-yl)-N-(1-(6-methylpyridazin-3-yl)ethyl)quinazolin-4-amine]",316 to 3160,< 316,< 316,–
"COc1cc(-c2ncc(C)s2)cc2c(N[C@H](C)c3ccc(C)nn3)ncnc12 [Example 5, (R)-8-methoxy-N-(1-(6-methylpyridazin-3-yl)ethyl)-6-(5-methylthiazol-2-yl)quinazolin-4-amine]",316 to 3160,< 316,< 316,–
"COc1cc(-c2ncc(C)s2)cc2c(NCc3cc(C)no3)ncnc12 [Example 111, 8-methoxy-N-[(3-methylisoxazol-5-yl)methyl]-6-(5-methylthiazol-2-yl)quinazolin-4-amine]",316 to 3160,< 316,< 316,–
"C[C@@H](Nc1ncnc2c(-c3ccnnc3)cc(-c3ccc(F)cc3)cc12)c1cnc(C(F)(F)F)nc1 [Example 24, (R)-6-(4-fluorophenyl)-8-(pyridazin-4-yl)-N-(1-(2-(trifluoromethyl)pyrimidin-5-yl)ethyl)quinazolin-4-amine]",3160 to 31600,< 316,< 316,–
"COc1cc(-c2ccc(F)cn2)cc2c(NC(C)c3nc(C)no3)ncnc12 (single isomer, unassigned) [Example 176, 6-(5-fluoropyridin-2-yl)-8-methoxy-N-(1-(3-methyl-1,2,4-oxadiazol-5-yl)ethyl)quinazolin-4-amine]",3160 to 31600,< 316,< 316,–
"COc1cc(-c2ccc(F)cc2)cc2c(NC(C)c3nc(-c4ccncc4)no3)ncnc12 (single isomer, unassigned) [Example 193, 6-(4-fluorophenyl)-8-methoxy-N-(1-(3-(pyridin-4-yl)-1,2,4-oxadiazol-5-yl)ethyl)quinazolin-4-amine]",316 to 3160,< 316,< 316,–
